One series concerns the target 5HT2A (Homo sapiens, UniProt P28223). The series is described as follows: cell-based. To be noted: agonist mode; read-out: EC50.
The next series concerns the target Alpha1a (Homo sapiens, UniProt P35348). The series is described as follows: cell-based. As to conditions: read-out: IC50.
The target in a further series is CB2 (Homo sapiens, UniProt P34972). The series is described as follows: cell-based. As to conditions: read-out: IC50.
A further series concerns the target H2 (Homo sapiens, UniProt P25021). The series is described as follows: cell-based. To be noted: read-out: EC50.
A further series concerns the target M2 (Homo sapiens, UniProt P08172). The series is described as follows: cell-based.
A further series has as its target M3 (Homo sapiens, UniProt P20309). The series is described as follows: cell-based.
Another series deals with M1 (Homo sapiens, UniProt P11229). The series is described as follows: cell-based.
Sequence of M1 (P11229 whole entry): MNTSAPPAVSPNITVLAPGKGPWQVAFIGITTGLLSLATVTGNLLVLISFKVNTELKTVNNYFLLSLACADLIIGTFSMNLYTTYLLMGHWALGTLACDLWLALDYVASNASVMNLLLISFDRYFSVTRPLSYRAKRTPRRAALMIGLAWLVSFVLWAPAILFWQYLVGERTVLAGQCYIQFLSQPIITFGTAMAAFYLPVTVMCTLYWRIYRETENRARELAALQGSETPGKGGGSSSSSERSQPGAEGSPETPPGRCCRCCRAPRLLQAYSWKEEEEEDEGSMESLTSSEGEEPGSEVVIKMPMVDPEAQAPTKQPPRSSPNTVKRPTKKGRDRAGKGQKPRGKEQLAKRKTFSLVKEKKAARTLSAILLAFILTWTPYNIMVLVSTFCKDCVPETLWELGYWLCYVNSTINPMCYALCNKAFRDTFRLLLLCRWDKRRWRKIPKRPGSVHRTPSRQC
In a further series the test system is RSV long. The series is described as follows: microbe, parasite or virus in culture. In kind it is cell-based, respiratory syncytial virus. To be noted: read-out: EC50 for Virus.
A further series has as its system HCV replicon 1b. The series is described as follows: microbe, parasite or virus in culture. The format is cell-based. As to conditions: Hepatitis C virus, read-out: EC50 for Virus.
Series [1] in a line: in vitro.
A short description of series [2]: Cytotoxicity in MDCK cells without viral infection. As to conditions: dog.
Series [3] deals with Influenza virus A/California/07/2009 (H1N1)pdm09. The series is described as follows: microbe, parasite or virus in culture. The format is cell-based. As to conditions: H1N1, MDCK, read-out: EC50 (mean ± SD).
In another series the test system is A/PR/8/34 (H1N1). More on the design: species or system BALB/c mice. As to conditions: mouse, in vivo.
For series [4], the system named is Influenza virus A/California/2/2014 (H3N2). The series is described as follows: microbe, parasite or virus in culture. In kind it is cell-based. To be noted: H3N2, MDCK, read-out: EC50 (mean ± SD).
The test system of series [5] is AD2. The format is cell-based, human.
Series [6] deals with influenza A virus WSN/33 (H1N1). The arrangement: species or system BALB/c mice. As to conditions: mouse, in vivo.
The target of another series is T1, CCKa (Homo sapiens, UniProt P32238).
T1 sequence (P32238 1-428): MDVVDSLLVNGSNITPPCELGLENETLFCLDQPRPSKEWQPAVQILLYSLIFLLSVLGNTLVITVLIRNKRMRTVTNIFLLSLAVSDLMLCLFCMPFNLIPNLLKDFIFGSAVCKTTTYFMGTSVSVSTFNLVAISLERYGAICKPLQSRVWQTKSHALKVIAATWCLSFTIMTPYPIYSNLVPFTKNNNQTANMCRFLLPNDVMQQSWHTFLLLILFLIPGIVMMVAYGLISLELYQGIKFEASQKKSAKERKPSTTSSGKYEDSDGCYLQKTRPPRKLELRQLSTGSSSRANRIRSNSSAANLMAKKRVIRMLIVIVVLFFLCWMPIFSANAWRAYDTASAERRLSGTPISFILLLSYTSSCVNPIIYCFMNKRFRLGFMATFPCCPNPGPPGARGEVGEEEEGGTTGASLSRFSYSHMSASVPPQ
The series is described as follows: cell-based. As to conditions: read-out: IC50.

Series [7] deals with AD2. In kind it is cell-based, human. As to conditions: read-out: EC50.
Series [8] can be described thus: in vitro. As to conditions: rhesus monkey.
Another series concerns HPIV-3 C243. The series is described as follows: microbe, parasite or virus in culture. In kind it is cell-based, human parainfluenza virus type 3. To be noted: Human respirovirus 3, LLC-MK2, read-out: EC50 for Virus.

Counter-ions that a name gives are not always drawn.

Sequence of M2 (P08172 whole entry): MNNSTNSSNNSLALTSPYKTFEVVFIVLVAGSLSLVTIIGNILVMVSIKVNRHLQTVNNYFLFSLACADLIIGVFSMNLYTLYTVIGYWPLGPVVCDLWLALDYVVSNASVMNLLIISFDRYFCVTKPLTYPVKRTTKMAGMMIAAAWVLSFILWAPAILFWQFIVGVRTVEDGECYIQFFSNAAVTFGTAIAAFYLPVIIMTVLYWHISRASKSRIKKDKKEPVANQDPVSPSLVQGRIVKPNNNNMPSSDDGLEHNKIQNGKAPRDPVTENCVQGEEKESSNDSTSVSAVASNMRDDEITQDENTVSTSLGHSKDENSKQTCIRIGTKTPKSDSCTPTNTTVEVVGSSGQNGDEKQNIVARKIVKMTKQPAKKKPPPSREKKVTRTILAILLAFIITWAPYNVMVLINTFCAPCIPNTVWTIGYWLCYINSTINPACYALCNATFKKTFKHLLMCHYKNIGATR
Sequence of H2 (P25021 whole entry): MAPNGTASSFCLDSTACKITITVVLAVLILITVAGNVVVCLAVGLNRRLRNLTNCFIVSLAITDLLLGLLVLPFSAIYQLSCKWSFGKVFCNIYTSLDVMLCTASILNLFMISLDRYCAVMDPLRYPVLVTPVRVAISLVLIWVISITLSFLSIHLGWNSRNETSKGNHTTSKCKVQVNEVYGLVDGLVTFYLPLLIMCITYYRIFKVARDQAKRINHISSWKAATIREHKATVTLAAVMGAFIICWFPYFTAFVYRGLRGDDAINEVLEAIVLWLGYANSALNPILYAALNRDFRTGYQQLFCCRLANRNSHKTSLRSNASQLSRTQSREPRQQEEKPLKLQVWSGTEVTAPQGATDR
Sequence of Alpha1a (P35348 whole entry): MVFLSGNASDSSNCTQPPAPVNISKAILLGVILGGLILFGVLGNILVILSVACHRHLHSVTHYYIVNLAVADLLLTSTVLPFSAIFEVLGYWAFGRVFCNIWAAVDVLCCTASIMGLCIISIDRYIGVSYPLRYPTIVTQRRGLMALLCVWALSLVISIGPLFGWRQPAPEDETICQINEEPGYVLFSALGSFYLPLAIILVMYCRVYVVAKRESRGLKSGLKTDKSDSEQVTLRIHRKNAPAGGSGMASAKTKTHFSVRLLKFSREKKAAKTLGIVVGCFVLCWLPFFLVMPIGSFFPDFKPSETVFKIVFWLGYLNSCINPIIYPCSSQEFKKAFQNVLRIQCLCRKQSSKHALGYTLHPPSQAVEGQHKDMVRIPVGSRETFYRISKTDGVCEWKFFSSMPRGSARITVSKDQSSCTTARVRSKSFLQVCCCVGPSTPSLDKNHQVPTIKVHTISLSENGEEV
Sequence of CB2 (P34972 whole entry): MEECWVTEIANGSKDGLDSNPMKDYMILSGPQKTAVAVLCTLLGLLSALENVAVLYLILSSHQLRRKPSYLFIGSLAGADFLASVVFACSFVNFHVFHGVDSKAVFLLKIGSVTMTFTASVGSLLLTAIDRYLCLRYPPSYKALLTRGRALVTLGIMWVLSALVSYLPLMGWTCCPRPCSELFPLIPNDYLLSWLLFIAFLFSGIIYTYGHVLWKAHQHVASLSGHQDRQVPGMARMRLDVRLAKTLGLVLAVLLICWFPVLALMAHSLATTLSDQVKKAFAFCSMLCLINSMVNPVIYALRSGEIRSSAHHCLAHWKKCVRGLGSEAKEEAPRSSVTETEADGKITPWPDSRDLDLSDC
Sequence of M3 (P20309 whole entry): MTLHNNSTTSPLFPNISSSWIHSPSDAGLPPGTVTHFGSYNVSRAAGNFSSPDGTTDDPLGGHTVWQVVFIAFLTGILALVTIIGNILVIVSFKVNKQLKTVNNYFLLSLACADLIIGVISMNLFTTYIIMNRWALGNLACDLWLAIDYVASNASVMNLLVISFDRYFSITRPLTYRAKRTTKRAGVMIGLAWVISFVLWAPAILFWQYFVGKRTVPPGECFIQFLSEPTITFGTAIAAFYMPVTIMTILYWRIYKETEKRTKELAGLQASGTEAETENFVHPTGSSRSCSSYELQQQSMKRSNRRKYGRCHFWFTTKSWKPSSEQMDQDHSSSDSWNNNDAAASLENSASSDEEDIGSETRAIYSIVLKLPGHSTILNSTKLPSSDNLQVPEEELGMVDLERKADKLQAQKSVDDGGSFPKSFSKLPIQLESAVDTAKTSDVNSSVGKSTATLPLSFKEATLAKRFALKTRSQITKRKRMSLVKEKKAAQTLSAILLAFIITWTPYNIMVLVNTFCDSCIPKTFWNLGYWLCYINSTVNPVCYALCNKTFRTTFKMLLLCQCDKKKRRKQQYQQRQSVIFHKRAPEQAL
Sequence of 5HT2A (P28223 whole entry): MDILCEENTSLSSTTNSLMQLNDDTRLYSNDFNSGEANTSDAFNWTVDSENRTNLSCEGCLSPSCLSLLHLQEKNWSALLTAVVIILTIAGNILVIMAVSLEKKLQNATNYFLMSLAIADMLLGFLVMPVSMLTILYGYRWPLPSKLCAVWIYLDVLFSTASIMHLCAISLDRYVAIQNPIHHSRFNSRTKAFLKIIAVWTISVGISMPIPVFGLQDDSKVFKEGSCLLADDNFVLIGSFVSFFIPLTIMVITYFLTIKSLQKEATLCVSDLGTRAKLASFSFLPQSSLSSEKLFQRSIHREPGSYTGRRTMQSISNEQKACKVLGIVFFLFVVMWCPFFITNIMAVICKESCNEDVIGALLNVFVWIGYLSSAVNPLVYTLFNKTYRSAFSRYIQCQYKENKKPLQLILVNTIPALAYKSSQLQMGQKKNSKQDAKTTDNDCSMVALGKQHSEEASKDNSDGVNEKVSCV

As usually defined, the EC50 is the concentration giving half of the maximal effect. Take `NCCc1c[nH]c2ccc(C(N)=O)cc12` [5-CT, reference compound]: on 5HT2A, the EC50 stood at 9.35 nM.
As usually defined, the IC50 is the concentration at which inhibition is half-maximal. Regarding `COc1ccccc1N1CCN(CCCNc2c(C)c(=O)n(C)c(=O)n2C)CC1` [5-Methylurapidil, reference compound], the IC50 at Alpha1a is 3.65 nM.
Regarding `COc1ccc(C(=O)c2c(C)n(CCN3CCOCC3)c3cc(I)ccc23)cc1` [AM630, reference compound], at CB2, the IC50 was determined as 234 nM.
For `Cc1nc(N)sc1CCN` [Amthamine dihydrobromide, reference compound], the EC50 on H2 came to 1340 nM.
For the compound `C#CCOC(=O)C1=CCCN(C)C1` [Arecaidine propargyl ester, reference compound], the EC50 at M2 was 76.2 nM; at M3, 0.31 nM; at M1, 0.78 nM.
Regarding `O=c1n(Cc2nc3ccccc3n2CCCCO)c2cnccc2n1C1CC1` [BMS-433771, reference compound], in the series on RSV long, the EC50 came to 14 nM.
Take `COC(=O)N[C@H](C(=O)N1CCC[C@H]1c1nc(-c2ccc(-c3ccc(-c4c[nH]c([C@@H]5CCCN5C(=O)[C@@H](NC(=O)OC)C(C)C)n4)cc3)cc2)c[nH]1)C(C)C` [BMS-790052, reference compound]: the EC50 in the series on HCV replicon 1b turned out to be 0.021 nM. For the same compound, the CC50 in the series “in vitro [1]” is over 3 nM.
On to `O=C1c2c(O)c(=O)ccn2N([C@@H]2c3ccccc3SCc3c2ccc(F)c3F)[C@@H]2COCCN12` [Baloxavir], for which, in [2], the CC50 is 14400 ± 1520 nM. The EC50 in series [3] was 1.06 ± 0.22 nM; in series [4], 0.61 ± 0.02 nM. This compound gave a mortality rate in the series on A/PR/8/34 (H1N1) of 40%.
`Nc1nc2ccc(Cl)cc2c2nc(-c3ccco3)nn12` [CGS-15943, reference compound]: in the series on AD2 [5], half-maximal inhibition (IC50) required 0.11 nM.
With `NC(=O)c1nc(F)c[nH]c1=O` [Favipiravir], in [6], the “animals died (of n = 8)” value is reported as “six” and the “day on which body weight of surviving mice began to recover” value was 9 days.
`CCCCCN(CCCCC)C(=O)C(CCC(=O)O)NC(=O)c1ccc(Cl)c(Cl)c1` (stereo not drawn) [Lorglumide, reference compound]: at CCKa, the IC50 was 256 nM.
For `CCNC(=O)[C@H]1O[C@@H](n2cnc3c(N)ncnc32)[C@H](O)[C@@H]1O` [NECA, reference compound], the EC50 with AD2 [7] stood at 27.8 nM.
Consider `NC(=O)c1ncn([C@@H]2O[C@H](CO)[C@@H](O)[C@H]2O)n1` [Ribavirin, reference compound], for which the CC50 in the series “in vitro [8]” was over 100000 nM. The EC50 in the series with HPIV-3 C243 is 20300 nM.

These data come from article PMC10056986 (Pharmaceuticals, 2023).
